Measurements as given in PubChem BioAssay (NCI).
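Interpolation was linear, between the two tested concentrations surrounding the appropriate level; five concentrations were tested over 48 hours in 96-well plates. GI50 = concentration required for 50% inhibition of growth. The concentration for full growth arrest is given as TGI.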

Columns and labels:
Assay in all cases: NCI-60 cell line screen, 48 h
MDA-MB-435 = test system: MDA-MB-435
OVCAR-4 ovarian = test system: OVCAR-4 ovarian
MCF7 breast = test system: MCF7 breast
SR leukemia = test system: SR leukemia
UACC-62 melanoma = test system: UACC-62 melanoma
A498 renal = test system: A498 renal

Structure (SMILES)	TGI (MDA-MB-435) [µM]	TGI (OVCAR-4 ovarian) [µM]	TGI (MCF7 breast) [µM]	TGI (SR leukemia) [µM]	TGI (UACC-62 melanoma) [µM]	GI50 (MDA-MB-435) [µM]	GI50 (OVCAR-4 ovarian) [µM]	GI50 (MCF7 breast) [µM]	GI50 (A498 renal) [µM]	TGI (A498 renal) [µM]	GI50 (SR leukemia) [µM]	GI50 (UACC-62 melanoma) [µM]
N#CC(NC12CC3CC(CC(C3)C1)C2)c1ccc2c(c1)OCO2 (stereo not given)	> 100	> 100	> 100	> 100	> 100	–	–	–	–	–	–	–
c1ccc2[nH]c(-c3ccc(-c4nccc5c4[nH]c4ccccc45)cc3)nc2c1	4.27	7.75	17.2	6.36	3.49	1.92	2.27	3.56	11.4	25.5	2.21	1.6
CC(C)(C)n1cc(-c2ccnc(NCCCNS(=O)(=O)c3ccc(C(F)(F)F)cc3)c2)c(-c2cccc(O)c2)n1	3.35	5.25	3.63	10.5	3.23	1.81	2.29	1.78	1.54	4.2	2.21	1.69
C=C(C)C(=O)O[C@H]1CC(=C)[C@@H]2C[C@H](O)[C@](O)(CCl)[C@@H]2[C@H]2OC(=O)C(=C)[C@@H]21	3.77	4.01	4.04	–	11.4	1.99	2.08	1.6	12.8	26.7	–	3.26
Cc1nn2c(/C=C3\C(=O)Nc4ccc(Cl)cc43)c(C)nc2s1	26.7	> 100	> 100	64.4	> 100	3.4	83	15.6	46	> 100	4.69	82.1
Nc1c(C(=O)c2cccc(-c3ccncc3)c2)cnn1-c1ccc(F)cc1F	3.56	> 25	> 25	> 18.5	> 25	0.684	11.4	3.08	4.65	> 25	1.05	5.34
O=C1c2ccccc2C(O)(O)C1(O)C1(O)C(=O)c2ccccc2C1(O)O (stereo not given)	32.8	> 100	30.5	–	> 100	–	–	–	–	> 100	–	–
CCN(CC)CCCCNc1c2ccccc2[n+](C)c2c1[nH]c1ccccc12	2.16	2.57	3.63	42.2	0.26	0.6	0.345	0.256	0.613	2.39	0.373	0.0868
COc1cc(CSc2nc3ccc(C)cc3c(=O)n2-c2ccccc2)cc(OC)c1OC	0.896	> 100	> 100	> 40.8	> 100	0.269	4.92	0.548	1.92	9.15	0.409	1.93
CN(O)c1nc(N(C)O)nc(N2CCOCC2)n1	> 100	> 100	> 100	> 100	> 100	6.6	2.02	3.95	14.9	> 100	4.01	4.12
COc1ccc(C(=O)c2cc(OC)c(OC)c(OC)c2)cc1OC(=O)CCl	–	> 100	> 100	> 100	> 100	< 0.01	0.115	0.0249	2.07	7.01	< 0.01	0.565
COc1cc(C(=O)O[C@H](C(=O)NCCCCCNC(=O)[C@@H](OC(=O)c2cc(OC)cc3c(C)cccc23)[C@]2(C)CO2)[C@]2(C)CO2)c2cccc(C)c2c1	0.0913	> 100	–	–	1.08	0.016	0.877	< 0.0123	1.33	5.25	–	0.53
O=C(O)C(/C=C/c1ccccc1)c1ccccc1 (stereo not given)	–	–	> 100	> 100	> 100	–	–	–	–	> 100	–	–
CC(C)N(Cc1ccccc1)c1c(S)ssc1=S	18.5	> 100	5.02	7.89	15	0.694	0.641	1.57	0.723	4.12	2.16	0.452
COc1cc2c(cc1C)NC(=O)/C2=C/c1ccccn1	> 100	> 100	> 100	> 100	13.9	3.77	8.02	3.27	3.61	8.25	3.18	2.85
COc1ccc(-c2cn(-c3cc(OC)c(OC)c(OC)c3)c(SCc3ccccc3)n2)cc1OC	> 100	> 100	> 100	> 100	> 100	> 100	> 100	> 100	> 100	> 100	97.8	> 100
COc1cc([N+](=O)[O-])c(OC)cc1-c1nc2sc(Cl)cn2c1/C(N)=N/C(=N)N	4.64	33.8	–	–	35.3	1.9	5.67	–	20.7	48.6	–	15
C(#Cc1ccccc1C#Cc1cccs1)c1cccs1	> 100	> 100	> 100	–	> 100	37.2	83.8	43.3	22	81.4	–	43.4
CN(CCCn1c2c(c3ccccc3c1=O)C(=O)c1ccccc1-2)CCCn1c2c(c3ccccc3c1=O)C(=O)c1ccccc1-2	17.8	> 100	–	–	45.3	1.56	2.26	–	11.4	74.3	–	3.08
Cc1ccc(Nc2n[nH]c(=S)s2)cc1C	> 100	> 100	> 100	–	> 100	–	–	–	–	> 100	–	–
O=C(O)CNC(=O)c1ccc(-c2ccccc2)cc1	> 100	–	> 100	> 100	> 100	–	–	–	–	> 100	–	–
